Key:
Type in all cases: ADME, organism-based
[1] = AUC (infinity) in brain of male C57BL6 mouse at 3 mg/kg, po
[2] = Half life in plasma of male C57BL6 mouse at 3 mg/kg, po
[3] = AUC (infinity) in plasma of male C57BL6 mouse at 3 mg/kg, po
[4] = Tmax in brain of male C57BL6 mouse at 3 mg/kg, po
[5] = AUClast in brain of male C57BL6 mouse at 3 mg/kg, po
[6] = Cmax in brain of male C57BL6 mouse at 3 mg/kg, po
[7] = AUClast in plasma of male C57BL6 mouse at 3 mg/kg, po
[8] = Tmax in plasma of male C57BL6 mouse at 3 mg/kg, po
[9] = Cmax in plasma of male C57BL6 mouse at 3 mg/kg, po
[10] = Half life in brain of male C57BL6 mouse at 3 mg/kg, po

CCCOc1cc(CCN)c(OC)cc1Br
AUC(0-inf) [1]: 6680 ng·h/mL
half-life [2]: 1.44 h
AUC(0-inf) [3]: 291 ng·h/mL
Tmax [4]: 1 h
AUC(0-t) [5]: 6480 ng·h/mL
Cmax [6]: 1850 ng/mL
AUC(0-t) [7]: 284 ng·h/mL
Tmax [8]: 0.5 h
Cmax [9]: 130 ng/mL
half-life [10]: 1.29 h

CN(C)CCc1c[nH]c2cccc(O)c12 [PSILOCIN]
AUC(0-inf) [1]: 4420 ng·h/mL
half-life [2]: 1.7 h
AUC(0-inf) [3]: 1140 ng·h/mL
Tmax [4]: 0.5 h
AUC(0-t) [5]: 3600 ng·h/mL
Cmax [6]: 1340 ng/mL
AUC(0-t) [7]: 1060 ng·h/mL
Cmax [9]: 878 ng/mL
half-life [10]: 4.47 h

From ChEMBL document CHEMBL6134877, “Innovative Approaches in Psychedelics, AI, and Communication: A Multi-Domain Perspective” (ACS Med Chem Lett, 2025)
